Measured values reported in patent US10370433B2, “Compositions and methods for diagnosis and treatment of cancer” (BIONTECH AG, priority 2015, dated 2019).
Positions of bridges follow the written chain, without caps; N, C: chain ends. Residues, ends and D or L forms follow the SMILES beside them.

Molecular target: T1, recombinant human Seprase (rhuSeprase) (Homo sapiens, UniProt Q12884)
T1 construct: named pCEP4-IgKappa-huSeprase-coCHO_26-760aa-H6 and used for the generation of recombinant soluble human Seprase (rhuSeprase); mouse Ig kappa-chain V-J2-C secretion signal (N, cleaved yes); made in house; host or cells: FreeStyle CHO-S cells (transient transfection; purified from supernatant by Ni-chelate and SEC)
T1 sequence (Q12884 26-760): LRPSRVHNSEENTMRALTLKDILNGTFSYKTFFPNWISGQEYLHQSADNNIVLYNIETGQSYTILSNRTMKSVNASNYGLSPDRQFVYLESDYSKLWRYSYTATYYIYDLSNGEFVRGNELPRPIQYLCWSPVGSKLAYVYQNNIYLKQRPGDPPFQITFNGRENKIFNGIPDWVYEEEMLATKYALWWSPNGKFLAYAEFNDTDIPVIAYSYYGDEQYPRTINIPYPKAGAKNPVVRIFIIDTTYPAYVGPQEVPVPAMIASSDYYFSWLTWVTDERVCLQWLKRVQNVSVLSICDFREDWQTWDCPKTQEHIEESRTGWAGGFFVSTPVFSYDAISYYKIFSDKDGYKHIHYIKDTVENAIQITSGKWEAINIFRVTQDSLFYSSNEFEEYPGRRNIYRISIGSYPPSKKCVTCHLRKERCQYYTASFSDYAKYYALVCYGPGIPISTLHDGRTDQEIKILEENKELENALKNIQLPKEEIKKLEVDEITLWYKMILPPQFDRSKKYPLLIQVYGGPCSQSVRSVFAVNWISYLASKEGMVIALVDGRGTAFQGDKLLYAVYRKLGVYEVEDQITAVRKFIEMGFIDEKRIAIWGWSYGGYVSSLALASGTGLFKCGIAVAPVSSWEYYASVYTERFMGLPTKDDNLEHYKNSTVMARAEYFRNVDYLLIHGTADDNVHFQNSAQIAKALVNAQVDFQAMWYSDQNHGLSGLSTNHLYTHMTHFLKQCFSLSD
Test: Surface plasmon resonance (Biacore T100) on immobilized rhuSeprase
Type: binding
Conditions: for kon: read-out: ka (1/Ms)

SMILES	kd [s⁻¹]	kon [M⁻¹ s⁻¹]	Kd (KD (M, steady state)) [nM]
CC[C@H](C)[C@@H]1NC(=O)[C@@H]2CSSC[C@H](NC(=O)[C@H](C)NC(=O)CNC(=O)[C@H](CO)NC(=O)CN)C(=O)N3CCC[C@H]3C(=O)N[C@@H](Cc3ccc(O)cc3)C(=O)N[C@@H]([C@@H](C)O)C(=O)N[C@@H](CC(N)=O)C(=O)N[C@@H](Cc3c[nH]c4ccccc34)C(=O)N[C@@H](Cc3c[nH]cn3)C(=O)N3CCC[C@H]3C(=O)NCC(=O)N[C@@H](CCCNC(=N)N)C(=O)NCC(=O)N3CCC[C@H]3C(=O)N[C@@H](C)C(=O)N[C@H]3CSSC[C@H](NC1=O)C(=O)N[C@@H](CCCNC(=N)N)C(=O)NCC(=O)N[C@@H](CC(N)=O)C(=O)NCC(=O)N[C@@H](Cc1ccc(O)cc1)C(=O)N[C@H](C(=O)NCC(=O)O)CSSC[C@H](NC(=O)[C@H](CC(=O)O)NC(=O)[C@H](CO)NC(=O)[C@H](CC(=O)O)NC(=O)[C@H](CCCNC(=N)N)NC(=O)[C@H](CCCNC(=N)N)NC3=O)C(=O)N1CCC[C@H]1C(=O)NCC(=O)N[C@@H](CCCNC(=N)N)C(=O)N2 [FA8-G12] (H-GSGACPYTNWHPGRGPACRRDSDCPGRCICRGNGYCG-OH; disulfide 5-28, 18-30, 24-36; N-terminus and C-terminus assumed)	0.3171	651000	–
CC[C@H](C)[C@@H]1NC(=O)[C@@H]2CSSC[C@H](NC(=O)[C@H](C)NC(=O)CNC(=O)[C@H](CO)NC(=O)CN)C(=O)N3CCC[C@H]3C(=O)N[C@@H](Cc3ccc(O)cc3)C(=O)N[C@@H]([C@@H](C)O)C(=O)N[C@@H](CCCNC(=N)N)C(=O)N[C@@H](Cc3c[nH]c4ccccc34)C(=O)N[C@@H](C)C(=O)N[C@@H](C(C)C)C(=O)NCC(=O)N[C@@H](CCCNC(=N)N)C(=O)NCC(=O)N3CCC[C@H]3C(=O)N[C@@H](CC(=O)O)C(=O)N[C@H]3CSSC[C@H](NC1=O)C(=O)N[C@@H](CCCNC(=N)N)C(=O)NCC(=O)N[C@@H](CC(N)=O)C(=O)NCC(=O)N[C@@H](Cc1ccc(O)cc1)C(=O)N[C@H](C(=O)NCC(=O)O)CSSC[C@H](NC(=O)[C@H](CC(=O)O)NC(=O)[C@H](CO)NC(=O)[C@H](CC(=O)O)NC(=O)[C@H](CCCNC(=N)N)NC(=O)[C@H](CCCNC(=N)N)NC3=O)C(=O)N1CCC[C@H]1C(=O)NCC(=O)N[C@@H](CCCNC(=N)N)C(=O)N2 [FA8-D03] (H-GSGACPYTRWAVGRGPDCRRDSDCPGRCICRGNGYCG-OH; disulfide 5-28, 18-30, 24-36; N-terminus and C-terminus assumed)	0.1381	939000	–
CC[C@H](C)[C@@H]1NC(=O)[C@@H]2CSSC[C@H](NC(=O)[C@H](C)NC(=O)CNC(=O)[C@H](CO)NC(=O)CN)C(=O)N3CCC[C@H]3C(=O)N[C@@H](Cc3ccc(O)cc3)C(=O)N[C@@H](CO)C(=O)N[C@@H](CCCNC(=N)N)C(=O)N[C@@H](Cc3c[nH]c4ccccc34)C(=O)N[C@@H](C)C(=O)N[C@@H](C(C)C)C(=O)NCC(=O)N[C@@H](CCCNC(=N)N)C(=O)NCC(=O)N3CCC[C@H]3C(=O)N[C@@H](CC(=O)O)C(=O)N[C@H]3CSSC[C@H](NC1=O)C(=O)N[C@@H](CCCNC(=N)N)C(=O)NCC(=O)N[C@@H](CC(N)=O)C(=O)NCC(=O)N[C@@H](Cc1ccc(O)cc1)C(=O)N[C@H](C(=O)NCC(=O)O)CSSC[C@H](NC(=O)[C@H](CC(=O)O)NC(=O)[C@H](CO)NC(=O)[C@H](CC(=O)O)NC(=O)[C@H](CCCNC(=N)N)NC(=O)[C@H](CCCNC(=N)N)NC3=O)C(=O)N1CCC[C@H]1C(=O)NCC(=O)N[C@@H](CCCNC(=N)N)C(=O)N2 [FA8-D06] (H-GSGACPYSRWAVGRGPDCRRDSDCPGRCICRGNGYCG-OH; disulfide 5-28, 18-30, 24-36; N-terminus and C-terminus assumed)	0.05303	346000	113
CC(C)C[C@@H]1NC(=O)[C@@H]2CSSC[C@@H](C(=O)NCC(=O)O)NC(=O)[C@H](Cc3ccccc3)NC(=O)CNC(=O)[C@H](CC(N)=O)NC(=O)[C@@H]3CCCN3C(=O)CNC(=O)[C@@H]3CSSC[C@H](NC(=O)[C@H](CC(=O)O)NC(=O)[C@@H]4CCCN4C(=O)CNC(=O)[C@H](CCCNC(=N)N)NC(=O)CNC(=O)[C@@H]4CCCN4C(=O)[C@H]([C@@H](C)O)NC(=O)[C@H](Cc4c[nH]c5ccccc45)NC(=O)[C@H](CC(N)=O)NC(=O)[C@H](CO)NC(=O)[C@H](Cc4ccc(O)cc4)NC(=O)[C@@H]4CCCN4C(=O)[C@@H](NC(=O)[C@H](C)NC(=O)CNC(=O)[C@H](CO)NC(=O)CN)CSSC[C@H](NC(=O)CNC(=O)[C@H](C)NC1=O)C(=O)N[C@@H](C(C)C)C(=O)N3)C(=O)N[C@@H](CO)C(=O)N[C@@H](CCC(N)=O)C(=O)N[C@@H](CC(=O)O)C(=O)N[C@@H](CO)C(=O)N[C@@H](CC(=O)O)C(=O)N2 [ET-FA-012] (H-GSGACPYSNWTPGRGPDCSQDSDCLAGCVCGPNGFCG-OH; disulfide 5-28, 18-30, 24-36; N-terminus and C-terminus assumed)	0.8528	608000	–
CC[C@H](C)[C@@H]1NC(=O)[C@@H]2CSSC[C@H](NC(=O)[C@H](C)NC(=O)CNC(=O)[C@H](CO)NC(=O)CN)C(=O)N3CCC[C@H]3C(=O)N[C@@H](Cc3ccc(O)cc3)C(=O)N[C@@H]([C@@H](C)O)C(=O)N[C@@H](CCCNC(=N)N)C(=O)N[C@@H](Cc3c[nH]c4ccccc34)C(=O)N[C@@H](CCC(N)=O)C(=O)N3CCC[C@H]3C(=O)NCC(=O)N[C@@H](CCCNC(=N)N)C(=O)NCC(=O)N3CCC[C@H]3C(=O)N[C@@H](CO)C(=O)N[C@H]3CSSC[C@H](NC1=O)C(=O)N[C@@H](CCCNC(=N)N)C(=O)NCC(=O)N[C@@H](CC(N)=O)C(=O)NCC(=O)N[C@@H](Cc1ccc(O)cc1)C(=O)N[C@H](C(=O)NCC(=O)O)CSSC[C@H](NC(=O)[C@H](CC(=O)O)NC(=O)[C@H](CO)NC(=O)[C@H](CC(=O)O)NC(=O)[C@H](CCCNC(=N)N)NC(=O)[C@H](CCCNC(=N)N)NC3=O)C(=O)N1CCC[C@H]1C(=O)NCC(=O)N[C@@H](CCCNC(=N)N)C(=O)N2 [FA8-D05] (H-GSGACPYTRWQPGRGPSCRRDSDCPGRCICRGNGYCG-OH; disulfide 5-28, 18-30, 24-36; N-terminus and C-terminus assumed)	0.8121	4.21e+06	–
CC[C@H](C)[C@@H]1NC(=O)[C@@H]2CSSC[C@H](NC(=O)[C@H](C)NC(=O)CNC(=O)[C@H](CO)NC(=O)CN)C(=O)N3CCC[C@H]3C(=O)N[C@@H](Cc3ccc(O)cc3)C(=O)N[C@@H](CO)C(=O)N[C@@H](CC(N)=O)C(=O)N[C@@H](Cc3c[nH]c4ccccc34)C(=O)N[C@@H]([C@@H](C)O)C(=O)N3CCC[C@H]3C(=O)NCC(=O)N[C@@H](CCCNC(=N)N)C(=O)NCC(=O)N3CCC[C@H]3C(=O)N[C@@H](CC(=O)O)C(=O)N[C@H]3CSSC[C@H](NC1=O)C(=O)N[C@@H](CC(C)C)C(=O)N[C@@H](CCC(=O)O)C(=O)N[C@@H](CC(N)=O)C(=O)NCC(=O)N[C@@H](Cc1ccccc1)C(=O)N[C@H](C(=O)NCC(=O)O)CSSC[C@H](NC(=O)[C@H](CC(=O)O)NC(=O)[C@H](CO)NC(=O)[C@H](CC(=O)O)NC(=O)[C@H](CO)NC(=O)[C@H](CO)NC3=O)C(=O)N1CCC[C@H]1C(=O)NCC(=O)N[C@@H](C)C(=O)N2 [MO-FA-012] (H-GSGACPYSNWTPGRGPDCSSDSDCPGACICLENGFCG-OH; disulfide 5-28, 18-30, 24-36; N-terminus and C-terminus assumed)	0.5128	382000	–
